Reference: ChEMBL document CHEMBL5608235, “Tricyclic Benzo[1,3]oxazinyloxazolidinones as Potent Antibacterial Agents against Drug-Resistant Pathogens” (J Med Chem, 2024)
Values after ≈ are worked out from the molar mass of the structure shown. Active and inactive are the calls of the source. No cut-off for these calls is given here.

Assays:
[1] = Free AUC in BALB/c mouse at 10 mg/kg,po administration measured upto 24 hrs by LC-MS/MS analysis; assay type: ADME, organism-based; conditions: in vivo
Staphylococcus aureus [2] = experiment: Antibacterial activity against Linezolid resistant Staphylococcus aureus assessed as inhibition of bacterial growth incubated for 7 days by alamar blue assay; assay type: functional; conditions: 168 h, time 7 day
Staphylococcus aureus [3] = experiment: (§1) Antibacterial activity against methicillin resistant Staphylococcus aureus ATCC 33592 infected in cyclophosphamide-induced immunosuppressed Kunming mouse assessed as reduction in congestion in spleen at 10 mg/kg,po administration measured after 24 hrs by hematoxylin and eosin staining based microscopy; assay type: functional, organism-based
Staphylococcus aureus [4] = experiment: Antibacterial activity against vancomycin intermediate Staphylococcus aureus ATCC700699 assessed as inhibition of bacterial growth incubated for 7 days by alamar blue assay; assay type: functional; conditions: ATCC700699, 168 h, time 7 day
Enterococcus faecalis [5] = experiment: Antibacterial activity against Linezolid resistant Enterococcus faecalis clinical isolate 20-1 assessed as inhibition of bacterial growth incubated for 7 days by alamar blue assay; assay type: functional; conditions: clinical isolate 20-1, 168 h, time 7 day
Staphylococcus aureus [6] = experiment: Antibacterial activity against methicillin resistant Staphylococcus aureus ATCC 33592 infected in cyclophosphamide-induced immunosuppressed Kunming mouse assessed as increase in lymphocytes at 25 to 50 mg/kg,po administration measured after 7 days by Giemsa staining based analysis; assay type: functional, organism-based; conditions: dose 25-50 mg/kg, time 7.0 day
[7] = Clearance in BALB/c mouse at 1 mg/kg,iv administration measured upto 24 hrs by LC-MS/MS analysis; assay type: ADME, organism-based; conditions: in vivo
Staphylococcus aureus [8] = experiment: as §1, with “histopathological change” for “congestion”, “50” for “10”; assay type: functional, organism-based
Staphylococcus aureus [9] = experiment: as §1, with “appearance of inflated alveoli” for “reduction”, “lung” for “congestion in spleen”, “50” for “10”; assay type: functional, organism-based
Staphylococcus aureus [10] = experiment: as §1, with “reduction of bacterial load” for “reduction”, “liver” for “congestion in spleen”, “10 to 50” for “10”; assay type: functional, organism-based; conditions: dose 10-50 mg/kg
Staphylococcus aureus [11] = experiment: as §1, with “inflammatory cell infiltration” for “congestion”, “liver” for “spleen”, “50” for “10”; assay type: functional, organism-based
[12] = MRT (0 to t) in BALB/c mouse at 1 mg/kg,iv administration measured upto 24 hrs by LC-MS/MS analysis; assay type: ADME, organism-based; conditions: in vivo
Staphylococcus aureus [13] = experiment: as §1, with “pigment deposition” for “congestion”; assay type: functional, organism-based
Staphylococcus aureus [14] = experiment: Antibacterial activity against methicillin resistant Staphylococcus aureus ATCC 33592 infected in cyclophosphamide-induced immunosuppressed Kunming mouse assessed as decrease in IL-1beta level at po administration measured after 24 hrs by ELISA; assay type: functional, organism-based
[15] = MRT (0 to infinity) in BALB/c mouse at 10 mg/kg,po administration measured upto 24 hrs by LC-MS/MS analysis; assay type: ADME, organism-based; conditions: in vivo
[16] = Oral bioavailability in BALB/c mouse at 10 mg/kg administration measured upto 24 hrs by LC-MS/MS analysis; assay type: ADME, organism-based; conditions: BALB/c, in vivo
Staphylococcus aureus [17] = experiment: Antibacterial activity against methicillin resistant Staphylococcus aureus ATCC 33592 infected in cyclophosphamide-induced immunosuppressed Kunming mouse assessed as increase in white blood cell at 25 to 50 mg/kg,po administration measured after 7 days by Giemsa staining based analysis; assay type: functional, organism-based; conditions: dose 25-50 mg/kg, time 7.0 day
Staphylococcus aureus [18] = experiment: Inhibition of biofilm formation in Staphylococcus aureus ATCC 29213 at 1 to 10 ug/ml incubated for 48 hrs by crystal violet staining based assay; assay type: functional, organism-based; conditions: dose 1-10 µg/ml
[19] = Terminal half life in BALB/c mouse at 1 mg/kg,iv administration measured upto 24 hrs by LC-MS/MS analysis; assay type: ADME, organism-based; conditions: in vivo, read-out: beta t1/2 (converted)
[20] = AUC (0 to infinity) in BALB/c mouse at 10 mg/kg,po administration measured upto 24 hrs by LC-MS/MS analysis; assay type: ADME, organism-based; conditions: BALB/c, in vivo
Cell membrane [21] = experiment: Disruption of cell membrane integrity in Staphylococcus aureus ATCC 25923 assessed as increase in blue fluorescence at 1 ug/ml incubated for 1 hr by […] and propidium iodide double staining based confocal microscopic analysis; assay type: cell membranes; conditions: dose 1.0 µg/ml
Enterococcus faecalis [22] = experiment: Antibacterial activity against Linezolid resistant Enterococcus faecalis clinical isolate 20-2 assessed as inhibition of bacterial growth incubated for 7 days by alamar blue assay; assay type: functional; conditions: clinical isolate 20-2, 168 h, time 7 day
Cell membrane [23] = experiment: Disruption of cell membrane integrity in Staphylococcus aureus ATCC 25923 assessed as increase in red fluorescence at 1 ug/ml incubated for 1 hr by […] and propidium iodide double staining based confocal microscopic analysis; assay type: cell membranes; conditions: dose 1.0 µg/ml
Staphylococcus aureus [24] = experiment: Antibacterial activity against methicillin resistant Staphylococcus aureus ATCC 33592 infected in cyclophosphamide-induced immunosuppressed Kunming mouse assessed as decrease in IL-6 level at po administration measured after 24 hrs by ELISA; assay type: functional, organism-based
[25] = Terminal half life in BALB/c mouse at 10 mg/kg,po administration measured upto 24 hrs by LC-MS/MS analysis; assay type: ADME, organism-based; conditions: in vivo, read-out: beta t1/2 (converted)
Cell membrane [26] = experiment: Disruption of cell membrane in methicillin resistant Staphylococcus aureus ATCC 33592 assessed as change in morphology at 0.5 ug/ml incubated for 30 mins by Scanning electron microscopic analysis; assay type: cell membranes; conditions: dose 0.5 µg/ml
Staphylococcus aureus [27] = experiment: Bacteriostatic activity against methicillin resistant Staphylococcus aureus ATCC 33592 at 4 times MIC incubated for 2 to 24 hrs by time-kill assay; assay type: functional, organism-based; conditions: time 2-24 hrs
Staphylococcus aureus [28] = experiment: Antibacterial activity against daptomycin/methicillin resistant Staphylococcus aureus assessed as inhibition of bacterial growth incubated for 7 days by alamar blue assay; assay type: functional; conditions: 168 h, time 7 day
Staphylococcus aureus [29] = experiment: Antibacterial activity against methicillin resistant Staphylococcus aureus ATCC 33592 infected in cyclophosphamide-induced immunosuppressed Kunming mouse assessed as decrease in TNF-alpha level at po administration measured after 24 hrs by ELISA; assay type: functional, organism-based
[30] = MRT (0 to t) in BALB/c mouse at 10 mg/kg,po administration measured upto 24 hrs by LC-MS/MS analysis; assay type: ADME, organism-based; conditions: in vivo
Cell membrane [31] = experiment: Disruption of cell membrane integrity in methicillin resistant Staphylococcus aureus ATCC 33592 assessed as increase in red fluorescence at 1 ug/ml incubated for 1 hr by […] and propidium iodide double staining based confocal microscopic analysis; assay type: cell membranes; conditions: dose 1.0 µg/ml
Staphylococcus aureus [32] = experiment: Antibacterial activity against methicillin resistant Staphylococcus aureus clinical isolate 20-2 assessed as inhibition of bacterial growth incubated for 7 days by alamar blue assay; assay type: functional; conditions: clinical isolate 20-2, 168 h, time 7 day
Bacillus subtilis = experiment: Antibacterial activity against Bacillus subtilis ATCC6633 assessed as inhibition of bacterial growth incubated for 18 hrs by microdilution broth assay; assay type: functional
Staphylococcus aureus [33] = experiment: Antibacterial activity against methicillin resistant Staphylococcus aureus ATCC 33592 infected in cyclophosphamide-induced immunosuppressed Kunming mouse by measuring survival rate of mouse at 50 mg/kg,po administration measured for 7 days; assay type: functional; conditions: ATCC 33592, 168 h, time 7 day
Cell membrane [34] = experiment: Disruption of cell membrane in methicillin resistant Staphylococcus aureus ATCC 33592 assessed as cell shrinkage at 0.5 ug/ml incubated for 6 hrs by Scanning electron microscopic analysis; assay type: cell membranes; conditions: dose 0.5 µg/ml

Question: Which fAUC [1] does the source give for CC(=O)NC[C@@H]1OC(=O)N2Cc3cc(-c4ccc(C#N)cc4)c(F)cc3O[C@@H]12 here?
Answer: The fAUC was 14.94 µg·h/mL.

Question: And the MIC (Staphylococcus aureus [2])?
Answer: Its MIC is 2 µg/mL (≈ 5.24 µM).

Question: And the Activity (Staphylococcus aureus [3])?
Answer: The Activity was “Active”.

Question: And the MIC (Staphylococcus aureus [4])?
Answer: Its MIC is 0.5 µg/mL (≈ 1.31 µM).

Question: What about the MIC (Enterococcus faecalis [5]) of the same compound?
Answer: Its MIC is 1 µg/mL (≈ 2.62 µM).

Question: And the Activity (Staphylococcus aureus [6])?
Answer: Its Activity is “Active”.

Question: What about the clearance [7] of the same compound?
Answer: The clearance was 2.92 mL/min/kg.

Question: And the Activity (Staphylococcus aureus [8])?
Answer: The Activity was “Active”.

Question: And the Activity (Staphylococcus aureus [9])?
Answer: Its Activity is “Active”.

Question: And the Activity (Staphylococcus aureus [10])?
Answer: Its Activity is “Active”.

Question: What about the Activity (Staphylococcus aureus [11]) of the same compound?
Answer: Its Activity is “Active”.

Question: What about the MRT last at 24 h [12] of the same compound?
Answer: The MRT last at 24 h was 6.6 h.

Question: And the Activity (Staphylococcus aureus [13])?
Answer: The Activity was “Active”.

Question: And the Activity (Staphylococcus aureus [14])?
Answer: Its Activity is “Dose-Dependent Effect”.

Question: And the MRT inf [15]?
Answer: The MRT inf was 17.3 h.

Question: What about the bioavailability [16] of the same compound?
Answer: Its bioavailability is 122%.

Question: And the Activity (Staphylococcus aureus [17])?
Answer: Its Activity is “Active”.

Question: What about the inhibition (Staphylococcus aureus [18]) of the same compound?
Answer: The inhibition was “Active”.

Question: And the half-life [19]?
Answer: The half-life was 474 min.

Question: And the AUC(0-inf) [20]?
Answer: Its AUC(0-inf) is 83500 ng·h/mL.

Question: And the Activity (Cell membrane [21])?
Answer: Its Activity is “Active”.

Question: What about the MIC (Enterococcus faecalis [22]) of the same compound?
Answer: The MIC was 1 µg/mL (≈ 2.62 µM).

Question: And the Activity (Cell membrane [23])?
Answer: The Activity was “Active”.

Question: And the Activity (Staphylococcus aureus [24])?
Answer: Its Activity is “Dose-Dependent Effect”.

Question: And the half-life [25]?
Answer: The half-life was 714 min.

Question: And the Activity (Cell membrane [26])?
Answer: Its Activity is “Active”.

Question: And the Activity (Staphylococcus aureus [27])?
Answer: Its Activity is “Active”.

Question: And the MIC (Staphylococcus aureus [28])?
Answer: Its MIC is 1 µg/mL (≈ 2.62 µM).

Question: What about the Activity (Staphylococcus aureus [29]) of the same compound?
Answer: The Activity was “Dose-Dependent Effect”.

Question: And the MRT last at 24 h [30]?
Answer: Its MRT last at 24 h is 9.3 h.

Question: And the Activity (Cell membrane [31])?
Answer: Its Activity is “Active”.

Question: What about the MIC (Staphylococcus aureus [32]) of the same compound?
Answer: The MIC was 0.5 µg/mL (≈ 1.31 µM).

Question: What about the MIC (Bacillus subtilis) of the same compound?
Answer: Its MIC is 0.032 µg/mL (≈ 0.0839 µM).

Question: And the survival at 50 mg/kg (Staphylococcus aureus [33])?
Answer: The survival at 50 mg/kg was 100%.

Question: And the Activity (Cell membrane [34])?
Answer: Its Activity is “Active”.
